Reference: PubChem BioAssay (NCI)
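Dose response: 5 concentrations. Exposure: 48 h. Format: 96-well plates. Endpoint: linear interpolation; highest concentration if not reached. TGI denotes the concentration required for complete inhibition of growth.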 Peptide text beside a SMILES is read from it. * marks the point of attachment. Cbz = O=C(OCc1ccccc1)*

Key:
Test in all cases: DTP human tumour cell line panel, 48 h
SK-OV-3 ovarian = tested on: SK-OV-3 ovarian
NCI/ADR-RES ovarian = tested on: NCI/ADR-RES ovarian
HS 578T breast = tested on: HS 578T breast
SNB-75 CNS = tested on: SNB-75 CNS
SF-295 CNS = tested on: SF-295 CNS
UO-31 renal = tested on: UO-31 renal
SW-620 colon = tested on: SW-620 colon
CCRF-CEM leukemia = tested on: CCRF-CEM leukemia
TK-10 renal = tested on: TK-10 renal
HT29 colon = tested on: HT29 colon
SF-268 CNS = tested on: SF-268 CNS
PC-3 prostate = tested on: PC-3 prostate
SK-MEL-5 melanoma = tested on: SK-MEL-5 melanoma
RPMI-8226 leukemia = tested on: RPMI-8226 leukemia
SNB-19 CNS = tested on: SNB-19 CNS
UACC-62 melanoma = tested on: UACC-62 melanoma
DU-145 prostate = tested on: DU-145 prostate
SK-MEL-2 melanoma = tested on: SK-MEL-2 melanoma
KM12 colon = tested on: KM12 colon
COLO 205 colon = tested on: COLO 205 colon
LOX IMVI melanoma = tested on: LOX IMVI melanoma
NCI-H460 lung = tested on: NCI-H460 lung
SK-MEL-28 melanoma = tested on: SK-MEL-28 melanoma
OVCAR-5 ovarian = tested on: OVCAR-5 ovarian
NCI-H522 lung = tested on: NCI-H522 lung
HCT-116 colon = tested on: HCT-116 colon
786-0 renal = tested on: 786-0 renal
UACC-257 melanoma = tested on: UACC-257 melanoma
CAKI-1 renal = tested on: CAKI-1 renal
MDA-N = tested on: MDA-N
SN12C renal = tested on: SN12C renal
MDA-MB-435 = tested on: MDA-MB-435
MDA-MB-231 breast = tested on: MDA-MB-231 breast
RXF 393 renal = tested on: RXF 393 renal
OVCAR-8 ovarian = tested on: OVCAR-8 ovarian
EKVX NSCLC = tested on: EKVX NSCLC
MALME-3M melanoma = tested on: MALME-3M melanoma
M14 melanoma = tested on: M14 melanoma
ACHN renal = tested on: ACHN renal
A549 NSCLC = tested on: A549 NSCLC
SR leukemia = tested on: SR leukemia
MOLT-4 leukemia = tested on: MOLT-4 leukemia
MCF7 breast = tested on: MCF7 breast
HCT-15 colon = tested on: HCT-15 colon
U251 CNS = tested on: U251 CNS
NCI-H23 lung = tested on: NCI-H23 lung
OVCAR-4 ovarian = tested on: OVCAR-4 ovarian
IGROV1 ovarian = tested on: IGROV1 ovarian

Measured: TGI

CCOC(=O)CCC(NC(=O)CNC(=O)CNC(=O)C(CCC(=O)OCC)NC(=O)C(CCC(=O)OCC)NC(=O)C(CCC(=O)OCC)NC(=O)OCc1ccccc1)C(=O)NC(CCC(=O)OCC)C(=O)NC(CCC(=O)OCC)C(=O)OCC (stereo not drawn) (Cbz-E(OEt)E(OEt)E(OEt)GGE(OEt)E(OEt)E(OEt)-OEt; configuration not given here)
> 75 µM: all assays above
